Laboratory results published in US5840918A, “Isoprenyl transferase inhibitors” (Eisai Co., Ltd., priority 1997, dated 1998).
pIC50: −log10 of the molar value.

What was measured:
[1] = tested on: H-ras farnesylation in H-ras (61L) transformed NIH3T3 fibroblasts; assay: Inhibition of H-ras farnesylation in whole cells (Western blot); format: cell-based, mouse; conditions: Mus musculus, NIH3T3, 24 h, Table 2
Protocol: The ability of compounds of the invention to inhibit H-ras farnesylation and rap1 geranylgeranylation in whole cells was determined. H-ras (61L) transformed NIH3T3 fibroblasts were generously provided by C. Der, Univ. N. Carolina. These fibroblasts were treated for 24 h with 50 μM lovastatin (control) or the indicated concentrations of inhibitor. The cells were lysed in 1% NP-40, 5 mM Tris-HCl (pH 8.0), 5 mM EDTA, 0.1 mM N-tosyl-L-phenylalanine chloromethyl ketone, 0.1 mM N-tosyl-L-lysine chloromethyl ketone, and 1 mM phenylmethylsulfonyl fluoride. The lysate was centrifuged (15000×g, 5 min.) and the supernatant was used as a cell extract. […] After transfer to IMMOBILON P™ membrane (Millipore), the blots were probed with LA069 mouse monoclonal antibody to H-ras (Quality Biotech), or rabbit polyclonal antibody to rap1/Krev (Santa Cruz Biotechnology). All Western blots were developed using ECL chemiluminescent reagents (Amersham).

FTase = target: T1, FTase (Bos taurus, UniProt P29702+P49355); assay: Inhibition of FTase-mediated prenylation (in vitro prenylation assay); format: biochemical; conditions: Table 1; partially purified FTase, 3 μM recombinant H-ras, 440 nM [3H]FPP, 15 min 37° C
T1 construct: bovine brain by inference from the cited Moores et al. 1991
Source text: (§1) Nanomolar concentrations of the indicated compounds were sufficient to inhibit farnesylation of ras proteins in vitro. For screening candidate compounds useful for the treatment of ras-associated tumors, the FTase assay is preferred. […] Substitutions which confer GGTase specificity as taught herein also produced potent inhibitors of GGTase.

GGTase = assay: Inhibition of GGTase-mediated prenylation (in vitro prenylation assay); format: biochemical; conditions: Table 1; partially purified GGTase, 5 μM recombinant H-ras (61L, CAIL), 1 μM [3H] geranylgeranyl diphosphate
Source text: as §1

Structure (SMILES)	pIC50 [1]	pIC50 (FTase)	pIC50 (GGTase)
CSCC[C@H](NC(=O)C(/C=C/[C@@H](/C=C/[C@@H](N)CS)C(C)C)C(C)C)C(=O)NC(C)(C)C (stereo partly drawn) [PD222]	< 4.30	6.15	5.52
CC(C)[C@@H](/C=C\C(Cc1ccccc1)C(=O)NC(CCC(N)=O)C(=O)O)/C=C/C(N)CS (stereo partly drawn) [PD301]	5.35	8.70	8.43
CSCCC(NC(=O)C(/C=C\C(/C=C/C(N)CS)C(C)C)Cc1ccccc1)C(=O)O (stereo not drawn) [PD311]	6.00 to 7.00	7.16	6.24
CSCCC(NC(=O)C(/C=C\[C@@H](/C=C/C1CSC(C)(C)N1)C(C)C)Cc1ccccc1)C(=O)O (stereo partly drawn) [PD321]	6.00 to 7.00	7.60	7.85
CCOC(=O)[C@H](CCSC)NC(=O)C(/C=C/[C@@H](/C=C/C(N)CS)Cc1ccccc1)C(C)C (stereo partly drawn) [PD351]	5.48	6.49	5.60
CSCC[C@H](NC(=O)C(/C=C\[C@@H](/C=C/C(N)CS)C(C)C)Cc1ccccc1)C(=O)O (stereo partly drawn) [PD401]	6.00 to 7.00	7.55	5.85
COC(=O)[C@H](CCSC)NC(=O)C(/C=C/[C@@H](/C=C/C(N)CS)C(C)C)C(C)C (stereo partly drawn) [PD411]	6.66	6.25	5.08
CCOC(=O)C(CCSC)NC(=O)C(C=CC(C=CC(N)CS)Cc1ccccc1)C(C)C (stereo not drawn) [PD421]	5.72	6.24	5.47
CSCC[C@H](NC(=O)C(/C=C/[C@H](C)/C=C/C(N)CS)Cc1ccccc1)C(=O)O (stereo partly drawn) [PD441]	5.38	7.59	6.77
COC(=O)[C@H](CCSC)N(C)C(=O)C(/C=C\[C@@H](/C=C/C(N)CS)C(C)C)Cc1ccccc1 (stereo partly drawn) [PD451]	6.40	6.84	5.95
COC(=O)[C@H](CCSC)NC(=O)C(Cc1ccccc1)OC[C@@H](/C=C/C(N)CS)C(C)C (stereo partly drawn) [PE011]	8.00	7.37	5.99
CSCC[C@H](NC(=O)C(Cc1ccccc1)OC[C@@H](/C=C/C(N)CS)C(C)C)C(=O)O (stereo partly drawn) [PE021]	6.55	8.05	7.04
CC(C)[C@H](/C=C/C(N)CS)COC(Cc1ccccc1)C(=O)N[C@@H](CCS(C)(=O)=O)C(=O)O (stereo partly drawn) [PE031]	6.48	7.70	6.85
CSCCC(NC(=O)C(Cc1ccccc1)OCC(C=CC(N)CSSCC(N)C=CC(COC(Cc1ccccc1)C(=O)NC(CCSC)C(=O)O)C(C)C)C(C)C)C(=O)O (stereo not drawn) [PE041]	6.72	7.57	6.80
COC(=O)C(CCSC)NC(=O)C(Cc1ccccc1)OCC(C=CC(N)CSSCC(N)C=CC(COC(Cc1ccccc1)C(=O)NC(CCSC)C(=O)OC)C(C)C)C(C)C (stereo not drawn) [PE051]	6.96	6.54	5.64
COC(=O)[C@H](CCS(C)(=O)=O)NC(=O)C(Cc1ccccc1)OC[C@@H](/C=C/C(N)CS)C(C)C (stereo partly drawn) [PE061]	5.96	7.22	5.20
COc1ccc(-c2ccc(C/C=C/[C@@H](N)CS)cc2C(=O)N[C@@H](CCSC)C(=O)O)cc1 [PM011]	< 4.00	5.95	5.80
C=Cc1ccc(C/C=C/C(N)CS)cc1C(=O)N[C@@H](CCSC)C(=O)O (stereo partly drawn) [PM012]	5.57	8.70	6.28
CSCC[C@H](NC(=O)c1cc(C/C=C/C(N)CS)ccc1-c1ccsc1)C(=O)O (stereo partly drawn) [PM021]	5.68	7.77	7.12
NC(C=CCc1ccc(-c2ccsc2)c(C(=O)NC(Cc2cccs2)C(=O)O)c1)CSSCC(N)C=CCc1ccc(-c2ccsc2)c(C(=O)NC(Cc2cccs2)C(=O)O)c1 (stereo not drawn) [PM022]	4.88	7.74	6.89
COC(=O)[C@H](CCSC)NCc1cc(C/C=C/[C@@H](N)CS)ccc1-c1ccccc1 [PM031]	4.60	6.94	5.85

Structure (SMILES)	pIC50 [1]	pIC50 (FTase)	pIC50 (GGTase)
COC(=O)[C@H](CCS(C)(=O)=O)NC(=O)c1cc(CCC[C@@H](N)CS)ccc1-c1ccsc1 [PM032]	4.71	7.03	5.18
COC(=O)[C@H](CCSC)NC(=O)c1cc(C/C=C/[C@@H](N)CS)ccc1-c1ccccc1 [PM041]	5.64	6.74	5.85
CSCC[C@H](NC(=O)c1cc(C/C=C/[C@@H](N)CS)ccc1-c1cc(C(F)(F)F)cc(C(F)(F)F)c1)C(=O)O [PM042]	< 3.30	5.51	6.49
NC(=O)CC[C@H](NC(=O)c1cc(C/C=C/C(N)CS)ccc1-c1ccccc1)C(=O)O (stereo partly drawn) [PM051]	4.63	9.07	5.81
CSCC[C@H](NC(=O)c1cc(C/C=C/C(N)CS)ccc1-c1ccco1)C(=O)O (stereo partly drawn) [PM052]	5.59	9.52	6.72
CCc1ccc(C/C=C/C(N)CS)cc1C(=O)N[C@@H](CCSC)C(=O)O (stereo partly drawn) [PM062]	6.44	8.05	6.38
CSCC[C@H](NC(=O)c1cc(C/C=C/C(N)CS)ccc1-c1ccc(C(F)(F)F)cc1)C(=O)O (stereo partly drawn) [PM071]	< 4.00	6.15	6.02
CC(C)COC(=O)[C@H](CCS(C)(=O)=O)NC(=O)c1cc(C/C=C/[C@@H](N)CS)ccc1-c1ccsc1 [PM072]	5.62	6.80	5.40
CSCC[C@H](NC(=O)c1cc(C/C=C/C(N)CS)ccc1-c1ccccc1)C(N)=O (stereo partly drawn) [PM081]	4.63	6.77	5.77
CSCC[C@H](NC(=O)c1cc(C/C=C/C(N)CS)ccc1-c1cccc2ccccc12)C(=O)O (stereo partly drawn) [PM082]	4.68	7.52	6.83
NC(/C=C/Cc1ccc(-c2ccccc2)c(C(=O)N[C@@H](CO)C(=O)O)c1)CS (stereo partly drawn) [PM091]	3.32	8.70	< 6.00
COC(=O)[C@H](Cc1cccs1)NC(=O)c1cc(C/C=C/C(N)CS)ccc1-c1ccsc1 (stereo partly drawn) [PM092]	5.57	6.67	5.46
CSCC[C@H](NC(=O)c1cc(C/C=C\C(N)CS)ccc1-c1ccccc1)C(=O)O (stereo partly drawn) [PM101]	4.84	7.62	6.10
CSCC[C@H](NC(=O)c1cccc(C/C=C/C(N)CS)c1)C(=O)O (stereo partly drawn) [PM102]	4.59	6.54	5.31
CSCC[C@H](NC(=O)c1cc(C/C=C/C(N)CS)ccc1-c1cccc(C(F)(F)F)c1)C(=O)O (stereo partly drawn) [PM111]	< 4.00	7.62	6.61
CSCC[C@H](NC(=O)c1cc(C/C=C/C(N)CS)ccc1C)C(=O)O (stereo partly drawn) [PM112]	5.40	8.92	5.78
CSCC[C@H](NCc1cc(C/C=C/C(N)CS)ccc1-c1ccccc1)C(=O)O (stereo partly drawn) [PM121]	4.63	7.66	5.76
COc1ccc(C/C=C/C(N)CS)cc1C(=O)N[C@@H](CCSC)C(=O)O (stereo partly drawn) [PM122]	4.63	8.52	5.66
CC(C)C[C@H](NC(=O)c1cc(C/C=C/C(N)CS)ccc1-c1ccccc1)C(=O)O (stereo partly drawn) [PM131]	< 3.60	6.22	8.62
COC(=O)[C@H](CCSC)NC(=O)c1cc(CCCC(N)CS)ccc1-c1ccsc1 (stereo partly drawn) [PM132]	5.80	6.92	5.79
